Measurements published in paper PMC8878047 (Pharmaceutics, 2022).
Where two headings read alike, the source gives them in different places.

How the values were obtained:
[1] = tested on: wild type AB strain zebrafish; conditions: 30 embryos per well
Procedure: Zebrafish were incubated and grown in the Joint Laboratory established by Shandong Rui’ying Pharmaceutical Group (Heze, China) and China Pharmaceutical University. Both the Wild-type AB (Danio rerio) and Tg(mpx:eGFP) zebrafish strains were maintained under the guidance of the standard procedures of The Zebrafish Book. […] Then the zebrafish were allowed to naturally mate and spawn the next morning. The normally born embryos were then collected after 1 h and kept in an incubating system at 28 °C. The 6 hpf (hour post fertilization) embryos were transferred into a 6-well plate exposed to 5 mL of egg water, in which 30 embryos were in each well.

E. coli [2] = test: Quasi-clinical trial on E. coli-infected AA broilers (drug-mixed feeding); conditions: AA broilers
Procedure: (§1) Then, broilers were randomly and equally divided into five different groups and marked as five groups. […] Note that the daily drug-mixed feeding ratio (g drug/kg feed) was indicated for the first 4 h every day, and unmedicated feed then followed. In addition, E. coli strains for the infection of chicken was supplied as a freeze-dried powder. They were revived and cultured according to the standard procedures. The strain was inoculated into a liquid medium and cultured in a 37 °C incubator for 6–8 h. We detected the concentration of the bacterial liquid to be 2.8 × 10^8 CFU/mL as the pathogenic concentration. Finally, all of the chickens except the healthy control group were intramuscularly injected with 0.5 mL of pathogenic bacteria, and all chickens were fasted for 4 h. After successfully simulating the bacterial infection of the chickens, the drug-mixed feeding chickens were continuously fed for 6 d. During this time, we observed their behavioral habits, mortality, and recovery rates.

[3] = tested on: neutrophil cluster aggregation; test: CuSO4-induced inflammation model in Tg(mpx:eGFP) zebrafish; conditions: 10 μM CuSO4 40 min, Tg(mpx:eGFP) 3 dpf
[4] = Pharmacokinetic study in plasma after oral administration (HPLC-MS); conditions: SD rats, plasma, EFX 10 mg/kg, EFX-Ca 12 mg/kg
E. coli [5] = test: Quasi-clinical trial on E. coli-infected 817 broilers (drug-mixed feeding); conditions: 817 broilers
Procedure: as §1

[6] = tested on: H2O2-induced ROS production; test: H2O2-induced oxidative stress model in zebrafish (DCFH-DA); conditions: 48 h pre-treatment, H2O2 1.0 mM 4 h, H2O2-induced 17,250, control 590
[7] = Procedure: All tests were conducted in the animal experimental center of Guangxi Medical University. Preliminary experiments were needed before starting official tests. […] Groups of mice (n = 10 per group, half male and half female) received different doses of the tested compounds by gavage at the same single dose of drug solution, which was uniformed to be […] (drug solution)/10 g, but containing different concentration of tested drugs. […] We compared these mice with the control group in which the mice were not given drugs, according to the pre-experimental procedure. We closely observed the mice for 6 h after the gavage for signs of toxicity and mortality. As soon as death occurred among the maximum-dose group, we conducted an autopsy and took samples from the main organs for histopathological examination. In addition, we monitored all of the tested mice for 2 weeks to record their weight and mortality.
[8] = 0.01 μM medicated bath, 120 hpf

CCN1CCN(c2cc3c(cc2F)c(=O)c(C(=O)O)cn3C2CC2)CC1 [EFX, enrofloxacin, reference compound]
statistical death of the tested zebrafish ([1]; 0.01 μM medicated bath, 24 hpf): 6
statistical survival of the tested zebrafish ([1]; 0.01 μM medicated bath, 24 hpf): 24
statistical death of the tested zebrafish ([1]; 0.01 μM medicated bath, 48 hpf): 6
statistical survival of the tested zebrafish ([1]; 0.01 μM medicated bath, 48 hpf): 24
statistical death of the tested zebrafish ([1]; 0.01 μM medicated bath, 72 hpf): 6
statistical survival of the tested zebrafish ([1]; 0.01 μM medicated bath, 72 hpf): 24
statistical death of the tested zebrafish ([1]; 0.01 μM medicated bath, 96 hpf): 6
statistical survival of the tested zebrafish ([1]; 0.01 μM medicated bath, 96 hpf): 24
statistical death of the tested zebrafish [1, 8]: 6
statistical survival of the tested zebrafish [1, 8]: 24
statistical death of the tested zebrafish ([1]; 0.1 μM medicated bath, 24 hpf): 4
statistical survival of the tested zebrafish ([1]; 0.1 μM medicated bath, 24 hpf): 26
statistical death of the tested zebrafish ([1]; 0.1 μM medicated bath, 48 hpf): 4
statistical survival of the tested zebrafish ([1]; 0.1 μM medicated bath, 48 hpf): 26
statistical death of the tested zebrafish ([1]; 0.1 μM medicated bath, 72 hpf): 4
statistical survival of the tested zebrafish ([1]; 0.1 μM medicated bath, 72 hpf): 26
statistical death of the tested zebrafish ([1]; 0.1 μM medicated bath, 96 hpf): 4
statistical survival of the tested zebrafish ([1]; 0.1 μM medicated bath, 96 hpf): 26
statistical death of the tested zebrafish ([1]; 0.1 μM medicated bath, 120 hpf): 4
statistical survival of the tested zebrafish ([1]; 0.1 μM medicated bath, 120 hpf): 26
statistical death of the tested zebrafish ([1]; 1 μM medicated bath, 24 hpf): 2
statistical survival of the tested zebrafish ([1]; 1 μM medicated bath, 24 hpf): 28
statistical death of the tested zebrafish ([1]; 1 μM medicated bath, 48 hpf): 2
statistical survival of the tested zebrafish ([1]; 1 μM medicated bath, 48 hpf): 28
statistical death of the tested zebrafish ([1]; 1 μM medicated bath, 72 hpf): 2
statistical survival of the tested zebrafish ([1]; 1 μM medicated bath, 72 hpf): 28
statistical death of the tested zebrafish ([1]; 1 μM medicated bath, 96 hpf): 2
statistical survival of the tested zebrafish ([1]; 1 μM medicated bath, 96 hpf): 28
statistical death of the tested zebrafish ([1]; 1 μM medicated bath, 120 hpf): 2
statistical survival of the tested zebrafish ([1]; 1 μM medicated bath, 120 hpf): 28
statistical death of the tested zebrafish ([1]; 10 μM medicated bath, 24 hpf): 2
statistical survival of the tested zebrafish ([1]; 10 μM medicated bath, 24 hpf): 28
statistical death of the tested zebrafish ([1]; 10 μM medicated bath, 48 hpf): 2
statistical survival of the tested zebrafish ([1]; 10 μM medicated bath, 48 hpf): 28
statistical death of the tested zebrafish ([1]; 10 μM medicated bath, 72 hpf): 2
statistical survival of the tested zebrafish ([1]; 10 μM medicated bath, 72 hpf): 28
statistical death of the tested zebrafish ([1]; 10 μM medicated bath, 96 hpf): 2
statistical survival of the tested zebrafish ([1]; 10 μM medicated bath, 96 hpf): 28
statistical death of the tested zebrafish ([1]; 10 μM medicated bath, 120 hpf): 2
statistical survival of the tested zebrafish ([1]; 10 μM medicated bath, 120 hpf): 28
statistical death of the tested zebrafish ([1]; 20 μM medicated bath, 24 hpf): 4
statistical survival of the tested zebrafish ([1]; 20 μM medicated bath, 24 hpf): 26
statistical death of the tested zebrafish ([1]; 20 μM medicated bath, 48 hpf): 4
statistical survival of the tested zebrafish ([1]; 20 μM medicated bath, 48 hpf): 26
statistical death of the tested zebrafish ([1]; 20 μM medicated bath, 72 hpf): 4
statistical survival of the tested zebrafish ([1]; 20 μM medicated bath, 72 hpf): 26
statistical death of the tested zebrafish ([1]; 20 μM medicated bath, 96 hpf): 4
statistical survival of the tested zebrafish ([1]; 20 μM medicated bath, 96 hpf): 26
statistical death of the tested zebrafish ([1]; 20 μM medicated bath, 120 hpf): 4
statistical survival of the tested zebrafish ([1]; 20 μM medicated bath, 120 hpf): 26
Average Final Weight (E. coli [2]; EFX single dosage 11 g + 1.5 kg feed): 1880 ± 113 g
Average Weight Gain (E. coli [2]; EFX single dosage 11 g + 1.5 kg feed, Table 7): 380
Average Increment of Weight (E. coli [2]; EFX single dosage 11 g + 1.5 kg feed, Table 8): 250 g
Cure Rate (%) (E. coli [2]; EFX single dosage 11 g drug (5% solution) + 1.5 kg feed/4 h, 6 d): 62%
Survival Number (E. coli [2]; EFX single dosage 11 g drug (5% solution) + 1.5 kg feed/4 h, 6 d, 50 per group): 31
CuSO4-induced neutrophil aggregation ([3]; 0.1 μM pre-incubation 1 h): still maintained obvious clustering status
CuSO4-induced neutrophil aggregation ([3]; 1 μM pre-incubation 1 h): partial aggregations of the neutrophils could be observed
Ke [4]: 0.28
t 1/2β [4]: 2.43 H
Average Final Weight (E. coli [5]; EFX single dosage 11 g + 0.75 kg feed): 1030 ± 74 g
Average Weight Gain (E. coli [5]; EFX single dosage 11 g + 0.75 kg feed, Table 7): 100
Average Increment of Weight (E. coli [5]; EFX single dosage 11 g + 0.75 kg feed, Table 8): 140 g
Cure Rate (%) (E. coli [5]; EFX single dosage 11 g drug (5% solution) + 0.75 kg feed/4 h, 6 d): 64%
Survival Number (E. coli [5]; EFX single dosage 11 g drug (5% solution) + 0.75 kg feed/4 h, 6 d, 50 per group): 32
Average IOD (integrated optical density) of green fluorescence ([6]; 0.01 μM): 970 a.u.
Average IOD (integrated optical density) of green fluorescence ([6]; 0.1 μM): 772 a.u.
Average IOD (integrated optical density) of green fluorescence ([6]; 1 μM): 848 a.u.
Body Weight (g, x¯ ± SD) ([7]; 2000 mg/kg single gavage, Day-0): 18.35 ± 1.87 g
Body Weight (g, x¯ ± SD) ([7]; 2000 mg/kg single gavage, Day-1): 20.21 ± 2.06 g
Body Weight (g, x¯ ± SD) ([7]; 2000 mg/kg single gavage, Day-4): 25.19 ± 1.81 g
Body Weight (g, x¯ ± SD) ([7]; 2000 mg/kg single gavage, Day-7): 28.89 ± 1.99 g
Body Weight (g, x¯ ± SD) ([7]; 2000 mg/kg single gavage, Day-14): 36.93 ± 3.07 g
Body Weight (g, x¯ ± SD) ([7]; 3031 mg/kg single gavage, Day-0): 18.40 ± 1.78 g
Body Weight (g, x¯ ± SD) ([7]; 3031 mg/kg single gavage, Day-1): 19.20 ± 2.18 g
Body Weight (g, x¯ ± SD) ([7]; 3031 mg/kg single gavage, Day-4): 24.83 ± 3.08 g
Body Weight (g, x¯ ± SD) ([7]; 3031 mg/kg single gavage, Day-7): 29.17 ± 2.51 g
Body Weight (g, x¯ ± SD) ([7]; 3031 mg/kg single gavage, Day-14): 33.20 ± 4.46 g
Body Weight (g, x¯ ± SD) ([7]; 4595 mg/kg single gavage, Day-0): 18.67 ± 1.05 g
Body Weight (g, x¯ ± SD) ([7]; 4595 mg/kg single gavage, Day-1): 19.14 ± 0.96 g
Body Weight (g, x¯ ± SD) ([7]; 4595 mg/kg single gavage, Day-4): 23.54 ± 1.44 g
Body Weight (g, x¯ ± SD) ([7]; 4595 mg/kg single gavage, Day-7): 28.20 ± 1.52 g
Body Weight (g, x¯ ± SD) ([7]; 4595 mg/kg single gavage, Day-14): 33.96 ± 2.53 g
Body Weight (g, x¯ ± SD) ([7]; 6964 mg/kg single gavage, Day-0): 18.59 ± 1.34 g
Body Weight (g, x¯ ± SD) ([7]; 6964 mg/kg single gavage, Day-1): 19.68 ± 1.06 g
Body Weight (g, x¯ ± SD) ([7]; 6964 mg/kg single gavage, Day-4): 23.85 ± 1.88 g
Body Weight (g, x¯ ± SD) ([7]; 6964 mg/kg single gavage, Day-7): 27.98 ± 3.40 g
Body Weight (g, x¯ ± SD) ([7]; 6964 mg/kg single gavage, Day-14): 36.13 ± 5.35 g
Body Weight (g, x¯ ± SD) ([7]; 16,000 mg/kg single gavage, Day-0): 18.86 ± 1.03 g
Body Weight (g, x¯ ± SD) ([7]; 16,000 mg/kg single gavage, Day-1): 18.55 ± 1.70 g
Body Weight (g, x¯ ± SD) ([7]; 16,000 mg/kg single gavage, Day-7): 24.35 ± 2.63 g
Body Weight (g, x¯ ± SD) ([7]; 16,000 mg/kg single gavage, Day-14): 33.20 ± 4.00 g
